# Target: Tyrosine-protein phosphatase non-receptor type 14 (Homo sapiens) (UniProt Q15678)
# Test: PTPN14 phosphatase ligand binding by thermal shift, biophysical, human, DSF, SYPRO orange (AID 394)
# Details: recombinant PTPN14, DSF thermal shift, at 10 µM, protein 2 µM, buffer 10 mM HEPES, pH 7.5, NaCl 150 mM, hits give high values
# Sequence of Tyrosine-protein phosphatase non-receptor type 14 (Homo sapiens) (Q15678 whole entry, looked up): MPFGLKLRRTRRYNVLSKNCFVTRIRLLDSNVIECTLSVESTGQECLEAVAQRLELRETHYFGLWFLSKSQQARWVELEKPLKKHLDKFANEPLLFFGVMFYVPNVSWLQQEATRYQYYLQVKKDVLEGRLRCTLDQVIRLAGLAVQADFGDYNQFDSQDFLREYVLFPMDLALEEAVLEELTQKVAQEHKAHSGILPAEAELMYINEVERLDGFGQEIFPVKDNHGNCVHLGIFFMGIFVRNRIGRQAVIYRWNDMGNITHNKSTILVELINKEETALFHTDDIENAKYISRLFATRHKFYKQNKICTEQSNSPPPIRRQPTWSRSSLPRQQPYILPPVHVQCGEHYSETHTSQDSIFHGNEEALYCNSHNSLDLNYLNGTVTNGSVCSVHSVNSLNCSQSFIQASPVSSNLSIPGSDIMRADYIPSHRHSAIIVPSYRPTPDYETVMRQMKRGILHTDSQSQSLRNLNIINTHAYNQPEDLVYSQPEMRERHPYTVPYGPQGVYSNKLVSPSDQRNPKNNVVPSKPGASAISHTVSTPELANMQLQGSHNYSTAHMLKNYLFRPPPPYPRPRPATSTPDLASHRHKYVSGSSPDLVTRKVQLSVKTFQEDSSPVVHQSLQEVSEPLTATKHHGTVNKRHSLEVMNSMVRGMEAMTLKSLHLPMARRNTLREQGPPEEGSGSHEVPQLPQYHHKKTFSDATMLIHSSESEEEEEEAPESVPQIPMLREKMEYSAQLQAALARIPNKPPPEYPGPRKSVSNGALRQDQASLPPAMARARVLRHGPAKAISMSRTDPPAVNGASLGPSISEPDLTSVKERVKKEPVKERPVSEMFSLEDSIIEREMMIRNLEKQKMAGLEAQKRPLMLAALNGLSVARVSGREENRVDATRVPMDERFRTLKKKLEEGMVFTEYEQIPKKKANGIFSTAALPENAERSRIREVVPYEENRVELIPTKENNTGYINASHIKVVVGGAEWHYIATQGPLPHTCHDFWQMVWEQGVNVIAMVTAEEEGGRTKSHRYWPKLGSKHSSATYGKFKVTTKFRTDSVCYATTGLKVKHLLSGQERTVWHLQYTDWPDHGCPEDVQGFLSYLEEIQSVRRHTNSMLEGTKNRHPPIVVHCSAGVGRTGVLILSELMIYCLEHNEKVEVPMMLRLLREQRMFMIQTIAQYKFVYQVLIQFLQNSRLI
Tm shift [Celsius],"Tm shift (DTT 2000 µM, with dithiothreitol) [Celsius]",SMILES
5.88,–,OO.OO.[K+].[O]=[V].c1cnc2c(c1)ccc1cccnc12
5.95,–,O=C(O)c1ccc(O)cn1.OO.[O]=[V]
–,2.3,O=C([O-])c1ccccn1.OO.OO.[K+].[K+].[O]=[V]
4.81,–,OO.OO.[K+].[O]=[V].c1ccc(-c2ccccn2)nc1
4.45,–,O=C(O)c1ccc([O-])cn1.OO.OO.[K+].[K+].[O]=[V]

# Source: PubChem BioAssay AID394
